Reference: patent publication US4044043A, “Derivatives of 9-oxo-13-trans-prostenoic acid esters” (American Cyanamid Company, priority 1975, dated 1977)
Values after ≈ are worked out from the molar mass of the structure shown. Read-outs that look alike come from different tables or passages of the source.

Legend:
[1] = tested on: bronchospasms elicited by acetylcholine; assay: Bronchodilator Activity (Konzett Assay) against acetylcholine; format: in vivo, guinea pigs; settings: Cavia porcellus; three logarithmic cumulative intravenous doses
Protocol: (§1) Bronchodilator activity was determined in guinea pigs against bronchospasms elicited by intravenous injections of 5-hydroxytryptamine, histamine or acetylcholine by the Konzett procedure. [See J. Lulling, P. Lievens, F. El Sayed and J. Prignot, Arzeneimittel-Forschung, 18, 995 (1968)]. In Table IIIC which follows bronchodilator activity for representative compounds of this invention against one or more of the three spasmogenic agents is expressed as an ED50 determined from the results obtained with three logarithmic cumulative intravenous doses.

[2] = tested on: diastolic blood pressure; assay: Prostaglandin-like hypotensive activity in anesthetized rats (minimal dose for about 10 mm. decrease in diastolic blood pressure); format: in vivo, Male Wistar strain rats; settings: Rattus norvegicus; intravenous; decrease of about 10 mm. in diastolic blood pressure
Summary of the method: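 Male Wistar rats (~250 g), pentobarbital 30 mg./kg. i.v. and hexamethonium 2 mg./kg. i.v., iliac artery cannulated for blood pressure. Compounds in saline-Tween 80 given i.v. at 0.1–10.0 mg./kg.; value is the minimal dose giving ~10 mm. drop in diastolic pressure.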

[3] = tested on: dl-PGE1-induced contraction of gerbil colon; assay: Inhibition of dl-PGE1-Induced Contraction of Gerbil Colon (prostaglandin antagonist action); format: cell-based, gerbils (Meriones unguiculatus); settings: Meriones unguiculatus, 1 min; sub-maximal challenge, 20 ng./ml. dl-PGE1; 50% inhibition of maximum response; read-out: ID50 vs. 20 ng. of PGE1/ml.
Summary of the method: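 Ascending colon from male gerbils, held in De Jalon's solution at 37 °C under 95% O2/5% CO2 with 0.5 g resting tension, contraction recorded isometrically. 1 min compound exposure, then 1 min dl-PGE1 at 200 ng/ml (maximal) or 20 ng/ml (sub-maximal). Approximate ID50 taken from a concentration series against the preceding agonist-only cycle.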

[4] = tested on: bronchospasms elicited by histamine; assay: Bronchodilator Activity (Konzett Assay) against histamine; format: in vivo, guinea pigs; settings: Cavia porcellus; three logarithmic cumulative intravenous doses
Protocol: as §1

[5] = tested on: Microsporum gypseum ATCC 14683; assay: agar-dilution streak-plate antimicrobial assay; format: cell-based; settings: Nannizzia gypsea, ATCC14683, read-out: Minimal inhibitory conc. (2)
Summary of the method: (§2)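 Test solutions at 2.5 mg/ml were two-fold serially diluted, and 1 ml of each was mixed into 9 ml warm nutrient agar, with bacterial and fungal media kept separate. Overnight broth cultures or saline spore suspensions were streaked by loop. MIC was the lowest concentration (µg/ml) giving complete visible growth inhibition.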

[6] = tested on: Trichophyton mentagrophytes E 11; assay: agar-dilution streak-plate antimicrobial assay; format: cell-based; settings: E11, read-out: Minimal inhibitory conc. (4)
Summary of the method: as §2

[7] = tested on: Trichophyton tonsurans NIH 662; assay: agar-dilution streak-plate antimicrobial assay; format: cell-based; settings: NIH662, read-out: Minimal inhibitory conc. (3)
Summary of the method: as §2

[8] = tested on: Mycobacterium smegmatis ATCC 606; assay: agar-dilution streak-plate antimicrobial assay; format: cell-based; settings: Mycolicibacterium smegmatis, ATCC606, read-out: Minimal inhibitory conc. (6)
Summary of the method: as §2

[9] = tested on: bronchospasms elicited by 5-hydroxytryptamine; assay: Bronchodilator Activity (Konzett Assay) against 5-hydroxytryptamine; format: in vivo, guinea pigs; settings: Cavia porcellus; three logarithmic cumulative intravenous doses
Protocol: as §1

[10] = tested on: gastric acid secretion; assay: Inhibition of basal Gastric Acid Secretion (Acute Gastric Fistula Rat); format: in vivo, Female Sprague-Dawley rats; settings: 10 mg./kg. intraduodenal
Protocol: Inhibition of basal gastric acid secretion was determined in the acute gastric fistula rat as follows. Female Sprague-Dawley rats (Charles River Laboratories) weighing 140-160 grams are fasted in individual cages for 18-24 hours. The rats are then lightly anesthetized with ether and their front teeth extracted to avoid destruction of the plastic cannula. A midline incision is then made and the stomach and duodenum exposed. A flanged polyvinyl tube is inserted into the fundic portion of the stomach and secured with a purse string suture line using 4-0 Mersilene. The rat is then dosed by injection of the compound into the duodenum (1.0 ml. per 100 gram body weight). After dosing, the abdominal wall and skin are closed using metal wound clips. The rat is replaced in a cage containing a longitudinal slit to allow the polyvinyl tube to hang freely. An 8 ml. plastic collecting tube is attached to the flanged cannula and hangs freely below the cage. The first 30 minute sample is discarded designating this time as zero. The collecting tube is attached again and samples removed at the end of 60 and 120 minutes. Those samples are referred to as "A" and "B" in the table. The hourly samples are then transferred to a 15 ml. centrifuge tube and centrifuged for 5-10 minutes. Total and sediment volume are then recorded with the supernatant volume being used as volume of secretion. A 1 ml. or less aliquot is then removed and placed in a 50 ml. beaker containing 10 ml. of distilled water. This sample is then titrated using 0.01N NaOH to pH 7.0 using a Beckman zeromatic pH meter. Volume, titratable acidity (meq/L) and total acid output (μ eq/hour) are recorded. Percent inhibition is determined by comparison with the appropriate control. Groups of three rats were used. All compounds are administered in vehicle (0.5% methocel, 0.4% Tween 80, saline) at a constant volume of 1 ml./100 gram rat. Samples were sonicated with care to prevent overheating.

[11] = tested on: Streptococcus pyogenes C 203; assay: agar-dilution streak-plate antimicrobial assay; format: cell-based; settings: C203, read-out: Minimal inhibitory conc. (8)
Summary of the method: as §2

[12] = tested on: gastric acid secretion; assay: Inhibition of Gastric Acid Secretion (Pylorous-Ligated Rat), Shay rat procedure; format: in vivo, rats (male, CFE strain); settings: read-out: % Inhibition of Control Gastric Acid Secretion
Summary of the method: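 Male CFE rats were fasted 48 h, then pylorus-ligated under ether. Gastric contents were titrated with 0.02N or 0.04N NaOH to pH 8.4 for acid output, and ≥20% inhibition counted as active.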

[13] = tested on: Trichophyton rubrum E 97; assay: agar-dilution streak-plate antimicrobial assay; format: cell-based; settings: E97, read-out: Minimal inhibitory conc. (5)
Summary of the method: as §2

[14] = tested on: Microsporum canis ATCC 10214; assay: agar-dilution streak-plate antimicrobial assay; format: cell-based; settings: ATCC10214, read-out: Minimal inhibitory conc. (1)
Summary of the method: as §2

[15] = 2 h, B: 120 minute collection, read-out: % Inhibition Total Acid Output
[16] = 2 h, B: 120 minute collection, read-out: % Inhibition Total Acidity

| Compound | ED50 [1] | minimal effective dose [2] | IC50 [3] | ED50 [4] | MIC [5] | MIC [6] | MIC [7] | MIC [8] | ED50 [9] | MIC [11] | also measured |
| --- | --- | --- | --- | --- | --- | --- | --- | --- | --- | --- | --- |
| CCSCCC/C=C/[C@@H]1CCC(=O)[C@H]1CCCCCCC(=O)O (relative stereo) [9-oxo-18-thia-13-trans-prostenoic acid] | > 10 mg/kg | 0.2 mg/kg | 1 mg/L (≈ 2.94 µM) | 1.38 mg/kg | 250 mg/L (≈ 734 µM) | 125 mg/L (≈ 367 µM) | 125 mg/L (≈ 367 µM) | 250 mg/L (≈ 734 µM) | 1.99 mg/kg |  |  |
| CCOCCC/C=C/[C@@H]1CCC(=O)[C@H]1CCCCCCC(=O)O (relative stereo) [18-oxa-9-oxo-13-trans-prostenoic acid] | > 10 mg/kg | 2 mg/kg | 15 to 25 mg/L (≈ 46.2 to 77.1 µM) | 1.5 mg/kg |  | 250 mg/L (≈ 771 µM) | 250 mg/L (≈ 771 µM) |  | 1.92 mg/kg |  | inhibition in vivo at 10 mg/kg [10, 15]: 56%; inhibition in vivo at 10 mg/kg [10, 16]: 43% |
| CCCCCCCCCC/C=C/[C@H]1CCC(=O)[C@@H]1CCCCCCC(=O)O (relative stereo) [20-butyl-9-oxo-13-trans-prostenoic acid] | > 10 mg/kg |  |  | 2.4 mg/kg |  |  | 250 mg/L (≈ 660 µM) | 10 mg/L (≈ 26.4 µM) | > 10 mg/kg | 10 mg/L (≈ 26.4 µM) |  |
| O=C(O)CCCC/C=C/[C@@H]1CCC(=O)[C@H]1CCCCCCC(=O)O (relative stereo) [20-carboxy-9-oxo-18,19-dinor-13-trans-prostenoic acid] |  | 8 mg/kg | 35 mg/L (≈ 103 µM) |  |  |  |  |  |  |  | inhibition in vivo at 10 mg/kg [10, 15]: 25%; inhibition in vivo at 10 mg/kg [10, 16]: 30% |
| O=C(O)CCCCCC[C@H]1C(=O)CC[C@@H]1/C=C/CCCCCCS (relative stereo) [20-mercapto-9-oxo-13-trans-prostenoic acid] |  |  |  |  | 125 mg/L (≈ 353 µM) | 250 mg/L (≈ 705 µM) | 250 mg/L (≈ 705 µM) | 125 mg/L (≈ 353 µM) |  | 6 mg/L (≈ 16.9 µM) |  |
| CCCCCC/C=C/[C@H]1CCC(=O)[C@@H]1CC(=O)OCC (relative stereo) [ethyl 9-oxo-3,4,5,6,7-pentanor-13-trans-prostenoate] |  | 8 mg/kg |  |  |  | 125 mg/L (≈ 446 µM) | 250 mg/L (≈ 892 µM) | 125 mg/L (≈ 446 µM) |  | 125 mg/L (≈ 446 µM) |  |
| CCCCCC/C=C/[C@@H]1CCC(=O)[C@H]1CCCCOCC(=O)OCC (relative stereo) [ethyl 9-oxo-3-oxa-13-trans-prostenoate, ethyl 3-oxa-9-oxo-13-trans-prostenoate] |  |  |  |  |  |  |  |  |  |  | inhibition in vivo at 50 mg/kg ([12]; 50 mg./kg. intraduodenal): 48%; inhibition in vivo at 100 mg/kg ([12]; 100 mg./kg. intraduodenal): 89%; inhibition in vivo at 109 mg/kg ([12]; 109 mg./kg., 1 hr. pre-ligation): 59%; inhibition in vivo at 10 mg/kg ([10]; 1 h, A: 60 minute collection, read-out: % Inhibition Total Acid Output): 40%; inhibition in vivo at 10 mg/kg ([10]; 1 h, A: 60 minute collection, read-out: % Inhibition Total Acidity): 37% |
| CCC/C=C/[C@H]1CCC(=O)[C@@H]1CCCCCCC(=O)OCC (relative stereo) [ethyl 9-oxo-18,19,20-trinor-13-trans-prostenoate] |  |  |  |  |  | 250 mg/L (≈ 810 µM) |  | 250 mg/L (≈ 810 µM) |  |  | inhibition in vivo at 100 mg/kg ([12]; 100 mg./kg. intraduodenal): 94%; inhibition in vivo at 100 mg/kg ([12]; 100 mg./kg., 1 hr. pre-ligation): 73%; inhibition in vivo at 8 mg/kg ([12]; sc, 8 mg./kg. subcutaneous): 40% |
| CCOC(=O)CCCCCC[C@H]1C(=O)CC[C@@H]1/C=C/C(C)C (relative stereo) [ethyl 15-methyl-9-oxo-17,18,19,20-tetranor-13-trans-prostenoate] |  |  |  |  | 250 mg/L (≈ 810 µM) | 250 mg/L (≈ 810 µM) | 250 mg/L (≈ 810 µM) | 62 mg/L (≈ 201 µM) |  |  | MIC [13]: 250 mg/L (≈ 810 µM); MIC [14]: 250 mg/L (≈ 810 µM) |
